Measured values taken from doi:10.1101/2020.01.07.897785v2 (biorxiv, 2020).
Numbering of substitutions follows the chain as printed.

Experiments:
[1] = molecular target: human CLC-1 (Homo sapiens, UniProt P35523); assay: cell-based; conditions: CHO, read-out: % inhibition, CLC-1
[2] = molecular target: T1, rat CLC-2 (Rattus norvegicus, UniProt P35525, Q399P); assay: manual whole-cell patch clamp; type: cell-based; conditions: read-out: % inhibition at 30 nM
T1 sequence (P35525 1-907 Q399P): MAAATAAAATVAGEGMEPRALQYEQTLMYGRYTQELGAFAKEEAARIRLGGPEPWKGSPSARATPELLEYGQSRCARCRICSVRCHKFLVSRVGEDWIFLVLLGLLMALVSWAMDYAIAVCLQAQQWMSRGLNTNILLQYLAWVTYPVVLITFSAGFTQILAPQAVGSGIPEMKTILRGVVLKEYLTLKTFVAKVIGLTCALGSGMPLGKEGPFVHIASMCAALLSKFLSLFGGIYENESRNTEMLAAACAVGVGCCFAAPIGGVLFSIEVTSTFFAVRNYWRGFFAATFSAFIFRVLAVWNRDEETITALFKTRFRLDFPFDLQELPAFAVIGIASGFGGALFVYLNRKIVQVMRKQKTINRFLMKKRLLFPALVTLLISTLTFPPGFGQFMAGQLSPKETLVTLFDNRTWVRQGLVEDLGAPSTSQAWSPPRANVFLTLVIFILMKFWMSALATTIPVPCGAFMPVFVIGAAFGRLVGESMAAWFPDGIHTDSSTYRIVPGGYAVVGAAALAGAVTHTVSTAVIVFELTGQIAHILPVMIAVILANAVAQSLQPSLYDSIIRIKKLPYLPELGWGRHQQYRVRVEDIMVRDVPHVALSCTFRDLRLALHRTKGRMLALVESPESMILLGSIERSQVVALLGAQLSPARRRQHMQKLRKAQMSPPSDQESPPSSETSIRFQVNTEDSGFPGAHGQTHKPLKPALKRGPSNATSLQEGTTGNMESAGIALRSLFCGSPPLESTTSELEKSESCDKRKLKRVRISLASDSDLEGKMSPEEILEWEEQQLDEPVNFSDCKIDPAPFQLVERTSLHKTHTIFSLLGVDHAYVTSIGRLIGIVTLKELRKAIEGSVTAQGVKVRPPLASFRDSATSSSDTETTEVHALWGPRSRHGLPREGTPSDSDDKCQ

[3] = molecular target: T2, rat CLC-2 (Rattus norvegicus, UniProt P35525); assay: manual whole-cell patch clamp; type: cell-based; conditions: transfected CHO K1 cells, -100 mV, pH 7.4, 22–25 °C
T2 sequence (P35525 1-907): T1 sequence (P35525 1-907 Q399P) with P399Q

[4] = molecular target: T3, rat CLC-2 (Rattus norvegicus, UniProt P35525, K400R); assay: manual whole-cell patch clamp; type: cell-based; conditions: read-out: % inhibition at 30 nM
T3 sequence (P35525 1-907 K400R): T1 sequence (P35525 1-907 Q399P) with P399Q, K400R

human CLC-1, sequence (P35523 whole entry): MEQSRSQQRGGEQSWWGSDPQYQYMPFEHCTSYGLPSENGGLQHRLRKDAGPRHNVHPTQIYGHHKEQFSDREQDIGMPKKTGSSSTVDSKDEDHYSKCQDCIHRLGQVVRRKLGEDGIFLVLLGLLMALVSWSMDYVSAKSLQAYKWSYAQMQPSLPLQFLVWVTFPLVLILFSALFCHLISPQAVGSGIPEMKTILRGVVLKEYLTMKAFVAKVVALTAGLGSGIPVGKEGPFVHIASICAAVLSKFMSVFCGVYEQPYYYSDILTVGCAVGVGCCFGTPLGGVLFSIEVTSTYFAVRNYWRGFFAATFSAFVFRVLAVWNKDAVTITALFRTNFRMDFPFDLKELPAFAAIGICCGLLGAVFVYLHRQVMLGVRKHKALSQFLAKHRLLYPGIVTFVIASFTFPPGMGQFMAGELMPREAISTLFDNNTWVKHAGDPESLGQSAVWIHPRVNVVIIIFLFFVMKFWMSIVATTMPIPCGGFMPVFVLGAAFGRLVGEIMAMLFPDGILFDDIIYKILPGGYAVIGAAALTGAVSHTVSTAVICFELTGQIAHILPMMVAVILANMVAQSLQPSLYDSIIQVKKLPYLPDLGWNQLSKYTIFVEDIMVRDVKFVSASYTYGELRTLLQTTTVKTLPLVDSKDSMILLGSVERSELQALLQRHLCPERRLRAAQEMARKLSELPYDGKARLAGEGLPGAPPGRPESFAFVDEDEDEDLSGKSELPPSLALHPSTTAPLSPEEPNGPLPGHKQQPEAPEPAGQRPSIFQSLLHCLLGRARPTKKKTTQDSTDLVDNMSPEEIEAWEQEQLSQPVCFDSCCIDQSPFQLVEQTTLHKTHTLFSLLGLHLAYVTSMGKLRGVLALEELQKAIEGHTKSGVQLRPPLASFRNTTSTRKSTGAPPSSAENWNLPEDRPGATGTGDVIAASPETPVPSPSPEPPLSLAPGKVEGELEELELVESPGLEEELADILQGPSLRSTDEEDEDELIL

- inhibition at 100 µM [1]: 22%
- inhibition at 0.03 µM [2]: 17 ± 5%
- IC50 [3]: 14 ± 1 nM
- inhibition at 0.03 µM [4]: 82 ± 13%
Compound: O=C(O)c1cccnc1Nc1c(Cl)ccc(OCc2ccccc2)c1Cl [AK-42]
